# Measured values taken from patent US20150209315A1 (Cumberland Pharmaceuticals, priority 2009, published 2015).
# Columns and labels:
# [1] = system: post-operative adult patients; assay: Example 1: patient self-assessment of pain, VAS with movement; format: in vivo, human; parameters: key to VAS Score measured with Movement (median): VAS 0-10: 0 = no pain, 10 = intense pain; settings: 800 mg
# Procedure: Pain was measured by the patient's self-assessment using a Visual Analog Scale (VAS) from 0-10 with 0 being no pain and 10 being intense pain. This was measured both at rest and with movement. […] […] To account for the missing pain assessments, two missing value approaches as described in the statistical analysis plan were used to impute values. To determine the difference in overall pain at differing time-points, the area under the VAS pain curve during the first 24 hours, between 6 and 24 hours and between 12 and 24 hours were analyzed.
# [2] = system: post-operative adult patients; assay: Example 1: adverse events and safety labs; format: in vivo, human
# Procedure: Patients were evaluated and compared for morphine requirements between the active doses and placebo using analysis of variance and covariance procedures at an overall alpha level of 0.05. Secondary efficacy parameters were also evaluated and compared among the treatment groups using appropriate statistical methods described in the statistical analysis section of the protocol. Safety information was compared between the treatment groups using Chi-Square or Cochran-Mantel-Haenszel test. Demographic, background and baseline information among the treatment groups was also described.
# [3] = cited from earlier work
# [4] = system: patients undergoing orthopedic surgical procedures; assay: Example 3: pain at rest measured with VAS; settings: 800 mg, immediately post-surgery
smiles,measurement,setting,value
"CC(C)Cc1ccc(C(C)C(=O)O)cc1 (centres unmarked) [Ibuprofen, 2-(4-isobutylphenyl) propionic acid]",VAS Score measured with Movement (median),"[1]; EEP, 2-Hour",7.0
same,"VAS Score measured with Movement, % Reduction vs Placebo","[1]; EEP, 2-Hour",1.4%
same,VAS Score measured with Movement (median),"[1]; EEP, 3-Hour",6.1
same,"VAS Score measured with Movement, % Reduction vs Placebo","[1]; EEP, 3-Hour",−1.7%
same,VAS Score measured with Movement (median),"[1]; EEP, 6-Hour",5.6
same,"VAS Score measured with Movement, % Reduction vs Placebo","[1]; EEP, 6-Hour",−12.0%
same,VAS Score measured with Movement (median),"[1]; EEP, 9-Hour",4.8
same,"VAS Score measured with Movement, % Reduction vs Placebo","[1]; EEP, 9-Hour",4.0%
same,VAS Score measured with Movement (median),"[1]; EEP, 12-Hour",4.4
same,VAS Score measured with Movement (median),"[1]; EEP, 15-Hour",4.2
same,"VAS Score measured with Movement, % Reduction vs Placebo","[1]; EEP, 15-Hour",16.0%
same,VAS Score measured with Movement (median),"[1]; EEP, 18-Hour",4.0
same,"VAS Score measured with Movement, % Reduction vs Placebo","[1]; EEP, 18-Hour",20.0%
same,VAS Score measured with Movement (median),"[1]; EEP, 21-Hour",3.7
same,"VAS Score measured with Movement, % Reduction vs Placebo","[1]; EEP, 21-Hour",26.0%
same,VAS Score measured with Movement (median),"[1]; EEP, 24-Hour",3.6
same,"VAS Score measured with Movement, % Reduction vs Placebo","[1]; EEP, 24-Hour",18.2%
same,VAS Score measured with Movement (median),"[1]; EEP, 27-Hour",3.7
same,"VAS Score measured with Movement, % Reduction vs Placebo","[1]; EEP, 27-Hour",17.8%
same,VAS Score measured with Movement (median),"[1]; EEP, 30-Hour",3.6
same,VAS Score measured with Movement (median),"[1]; EEP, 33-Hour",3.6
same,"VAS Score measured with Movement, % Reduction vs Placebo","[1]; EEP, 33-Hour",5.3%
same,VAS Score measured with Movement (median),"[1]; EEP, 36-Hour",3.4
same,VAS Score measured with Movement (median),"[1]; EEP, 39-Hour",3.8
same,"VAS Score measured with Movement, % Reduction vs Placebo","[1]; EEP, 39-Hour",−11.8%
same,VAS Score measured with Movement (median),"[1]; EEP, 42-Hour",3.2
same,"VAS Score measured with Movement, % Reduction vs Placebo","[1]; EEP, 42-Hour",8.6%
same,VAS Score measured with Movement (median),"[1]; EEP, 45 Hour",2.8
same,"VAS Score measured with Movement, % Reduction vs Placebo","[1]; EEP, 45 Hour",9.7%
same,VAS Score measured with Movement (median),"[1]; EEP, 48-Hour",2.1
same,VAS Score measured with Movement (median),"[1]; ITT, 1-Hour",7.3
same,"VAS Score measured with Movement, % Reduction vs Placebo","[1]; ITT, 1-Hour",8.8%
same,VAS Score measured with Movement (median),"[1]; ITT, 2-Hour",6.8
same,"VAS Score measured with Movement, % Reduction vs Placebo","[1]; ITT, 2-Hour",6.8%
same,VAS Score measured with Movement (median),"[1]; ITT, 3-Hour",6.0
same,"VAS Score measured with Movement, % Reduction vs Placebo","[1]; ITT, 3-Hour",4.8%
same,VAS Score measured with Movement (median),"[1]; ITT, 6-Hour",5.3
same,"VAS Score measured with Movement, % Reduction vs Placebo","[1]; ITT, 6-Hour",7.0%
same,VAS Score measured with Movement (median),"[1]; ITT, 9-Hour",4.6
same,VAS Score measured with Movement (median),"[1]; ITT, 12-Hour",4.3
same,"VAS Score measured with Movement, % Reduction vs Placebo","[1]; ITT, 12-Hour",14.0%
same,VAS Score measured with Movement (median),"[1]; ITT, 15-Hour",4.2
same,"VAS Score measured with Movement, % Reduction vs Placebo","[1]; ITT, 15-Hour",16.0%
same,VAS Score measured with Movement (median),"[1]; ITT, 18-Hour",4.0
same,"VAS Score measured with Movement, % Reduction vs Placebo","[1]; ITT, 18-Hour",20.0%
same,VAS Score measured with Movement (median),"[1]; ITT, 21-Hour",3.8
same,"VAS Score measured with Movement, % Reduction vs Placebo","[1]; ITT, 21-Hour",22.4%
same,VAS Score measured with Movement (median),"[1]; ITT, 24-Hour",3.7
same,"VAS Score measured with Movement, % Reduction vs Placebo","[1]; ITT, 24-Hour",17.8%
same,VAS Score measured with Movement (median),"[1]; ITT, 27 Hour",3.6
same,"VAS Score measured with Movement, % Reduction vs Placebo","[1]; ITT, 27 Hour",18.2%
same,VAS Score measured with Movement (median),"[1]; ITT, 30-Hour",3.5
same,VAS Score measured with Movement (median),"[1]; ITT, 33-Hour",3.5
same,"VAS Score measured with Movement, % Reduction vs Placebo","[1]; ITT, 33-Hour",7.9%
same,VAS Score measured with Movement (median),"[1]; ITT, 36-Hour",3.5
same,VAS Score measured with Movement (median),"[1]; ITT, 39-Hour",3.7
same,"VAS Score measured with Movement, % Reduction vs Placebo","[1]; ITT, 39-Hour",-5.7%
same,VAS Score measured with Movement (median),"[1]; ITT, 42-Hour",3.3
same,"VAS Score measured with Movement, % Reduction vs Placebo","[1]; ITT, 42-Hour",2.9%
same,VAS Score measured with Movement (median),"[1]; ITT, 45-Hour",2.7
same,VAS Score measured with Movement (median),"[1]; ITT, 48-Hour",2.1
same,"VAS Score measured with Movement, % Reduction vs Placebo","[1]; ITT, 48-Hour",8.7%
same,patients experiencing nausea vs placebo,[2]; 400 mg,significant reduction
same,bleeding or renal complications,[2]; 400 mg and 800 mg,no additional bleeding or renal complications
same,patients experiencing serious adverse events vs placebo,[2]; 400 mg and 800 mg,no significant differences in the number of patients experiencing serious adverse events between groups
same,Dizziness vs placebo,[2]; 800 mg,experienced more often
same,patients experiencing diarrhea vs morphine only (placebo),[2]; 800 mg,significant reduction
same,patients experiencing nausea vs placebo,[2]; 800 mg,trending toward significance
same,patient deaths,[2]; 14 day study,no patient deaths
same,patients experiencing gastrointestinal disorders and fever vs morphine only (placebo),[2]; both 400 mg and 800 mg,significant reduction
same,solubility in water,[3],very poorly soluble in water
same,decrease in the mean VAS at rest,[4]; AT,15.8%
same,decrease in the mean VAS at rest,[4]; efficacy evaluable,14.7%
same,decrease in the mean VAS at rest,[4]; intent-to-treat,16.5%
